# Source: publication PMC9226124, “Macrocycle-stabilization of its interaction with 14-3-3 increases plasma membrane localization and activity of CFTR” (Nature Communications, 2022)
# Several values for one entry are separate records, joined by “and”; a condition that tells them apart may be missing. Equal entries are not always repeated.
# Key:
# Assay type in all cases: binding
# [1] = target: T1, 14-3-3β/CFTRpS753pS768 complex (Homo sapiens, UniProt P13569+P31946); test: Dose-response fluorescence polarization (FP) assay, compound titration; details: for FP signal: With 14-3-3
# T1 construct: His6 (cleaved yes); made in house; peptide synthetic
# T1 sequence (P31946 whole entry): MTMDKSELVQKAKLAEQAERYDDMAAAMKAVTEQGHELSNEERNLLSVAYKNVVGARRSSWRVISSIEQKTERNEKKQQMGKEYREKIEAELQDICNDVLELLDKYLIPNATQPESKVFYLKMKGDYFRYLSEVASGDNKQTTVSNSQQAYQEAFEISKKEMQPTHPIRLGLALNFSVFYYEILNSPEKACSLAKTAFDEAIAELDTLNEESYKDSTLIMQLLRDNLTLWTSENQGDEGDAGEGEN
# T1 sequence (P13569 747-774 limits assumed): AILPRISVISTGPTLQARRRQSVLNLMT
# Method in brief: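 Compounds were titrated in two-fold dilutions against 10 μM 14-3-3β and FITC-CFTR pS753pS768 peptide (100 nM or 10 nM). Buffer: 10 mM HEPES pH 7.4, 150 mM NaCl, 0.1% Tween20, 1 mg/mL BSA. Polarization was read at ex 485/em 535 nm, and EC50 was derived from a four-parameter variable-slope fit.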
# [2] = target: T2, FITC-labeled CFTRpS753pS768 peptide (no 14-3-3) (Homo sapiens, UniProt P13569); test: Dose-response FP control assay in the absence of 14-3-3; details: No 14-3-3
# T2 construct: made in house; host or cells: synthetic peptide
# Method in brief: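 Control run without 14-3-3: FITC-CFTR pS753/pS768 peptide (100 nM or 10 nM) with compound titrated in twofold dilutions in 10 mM HEPES pH 7.4, 150 mM NaCl, 0.1% Tween20, 1 mg/mL BSA. Fluorescence polarization read at ex 485/em 535 nm, background subtracted, n = 3. Curves fitted by four-parameter log(agonist) vs. response.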
# [3] = target: T1, 14-3-3β/CFTRpS753pS768 complex; test: FP assay, 14-3-3β titration at constant compound concentration (apparent KD)
# Procedure: FC-A (100 µM) was added as a positive control and DMSO as the negative control. […] Background polarization was subtracted from all values, n = 3 technical replicates. […] Source data are provided as a Source Data file. […]
# The FITC-labeled peptides were dissolved in FP buffer (10 mM HEPES pH 7.4, 150 mM NaCl, 0.1% Tween20, 1 mg/mL BSA) to a final concentration of 100 nM or 10 nM. […] The dilution series were made in 384 Corning Black Round Bottom well plates and their polarization was measured with a Tecan Infinite F500 plate reader (ex. = 485 nm, em. = 535 nm). The method of fitting of the curves was: “log(agonist) vs. response – Variable slope (four parameters)” from GraphPad Prism. The equation is Y = Bottom + (Top-Bottom)/(1 + 10^((LogEC50-X)*HillSlope)).
# from the hit validation library.
# f the compound, 100 µM FC-A, or both compound and FC-A, 100 µM each. Background polarization was subtracted f
# rom all values, n=3 technical replicates.
# Source data are provided as a Source Data file.
smiles,measurement,setting,value
N=C(N)NCCCC1NC(=O)C(CCC(N)=O)NC(=O)C(CCCNC(=N)N)NC(=O)C2CCCN2Cc2cccc(c2)-c2ccccc2CNC1=O (stereo not drawn) [CY007455],EC50,"[1]; 14-3-3β 10 μM, labeled CFTRpS753pS768 100 nM, read-out: EC50",170 µM
same,FP signal,[1]; compound 476.8 pM,5
same,FP signal,[1]; compound 953.7 pM,6
same,FP signal,[1]; compound 1.90735e-9 M,3
same,FP signal,[1]; compound 3.8147e-9 M,4
same,FP signal,[1]; compound 7.6294e-9 M,5
same,FP signal,[1]; compound 1.52588e-8 M,4
same,FP signal,[1]; compound 3.05176e-8 M,4
same,FP signal,[1]; compound 6.10352e-8 M,5
same,FP signal,[1]; compound 1.2207e-7 M,7
same,FP signal,[1]; compound 2.44141e-7 M,6
same,FP signal,[1]; compound 4.88281e-7 M,4
same,FP signal,[1]; compound 9.76563e-7 M,4
same,FP signal,[1]; compound 1.95313e-6 M,5
same,FP signal,[1]; compound 3.90625e-6 M,9
same,FP signal,[1]; compound 7.8125e-6 M,8
same,FP signal,[1]; compound 1.5625e-5 M,15
same,FP signal,[1]; compound 3.125e-5 M,26
same,FP signal,[1]; compound 6.25e-5 M,53
same,FP signal,[1]; compound 0.000125 M,107
same,FP signal,[1]; compound 0.00025 M,170
same,FP signal,[1]; compound 0.0005 M,209
same,FP signal,[1]; compound 0.001 M,244
same,FP signal,[2]; compound 476.8 pM,5
same,FP signal,[2]; compound 953.7 pM,6
same,FP signal,[2]; compound 1.90735e-9 M,3
same,FP signal,[2]; compound 3.8147e-9 M,4
same,FP signal,[2]; compound 7.6294e-9 M,5
same,FP signal,[2]; compound 1.52588e-8 M,4
same,FP signal,[2]; compound 3.05176e-8 M,4
same,FP signal,[2]; compound 6.10352e-8 M,5
same,FP signal,[2]; compound 1.2207e-7 M,7
same,FP signal,[2]; compound 2.44141e-7 M,6
same,FP signal,[2]; compound 4.88281e-7 M,4
same,FP signal,[2]; compound 9.76563e-7 M,4
same,FP signal,[2]; compound 1.95313e-6 M,5
same,FP signal,[2]; compound 3.90625e-6 M,9
same,FP signal,[2]; compound 7.8125e-6 M,8
same,FP signal,[2]; compound 1.5625e-5 M,15
same,FP signal,[2]; compound 3.125e-5 M,26
same,FP signal,[2]; compound 6.25e-5 M,53
same,FP signal,[2]; compound 0.000125 M,107
same,FP signal,[2]; compound 0.00025 M,170
same,FP signal,[2]; compound 0.0005 M,209
same,FP signal,[2]; compound 0.001 M,244
same,"Fluorescence polarization signal, 14-3-3β titration","[3]; CY compound (100 μM), 14-3-3β concentration 119.2 pM",1.333
same,"Fluorescence polarization signal, 14-3-3β titration","[3]; CY compound (100 μM), 14-3-3β concentration 4.88281e-7 M",8.333 and 7.333
same,"Fluorescence polarization signal, 14-3-3β titration","[3]; CY compound (100 μM), 14-3-3β concentration 9.76563e-7 M",12.3333 and 8.333 and 11.3333
same,"Fluorescence polarization signal, 14-3-3β titration","[3]; CY compound (100 μM), 14-3-3β concentration 1.95313e-6 M",20.3333 and 17.3333 and 14.3333
same,"Fluorescence polarization signal, 14-3-3β titration","[3]; CY compound (100 μM), 14-3-3β concentration 3.90625e-6 M",27.3333 and 24.3333 and 22.3333
same,"Fluorescence polarization signal, 14-3-3β titration","[3]; CY compound (100 μM), 14-3-3β concentration 7.8125e-6 M",38.3333 and 32.3333 and 35.3333
same,"Fluorescence polarization signal, 14-3-3β titration","[3]; CY compound (100 μM), 14-3-3β concentration 1.5625e-5 M",51.3333 and 50.3333 and 48.3333
same,"Fluorescence polarization signal, 14-3-3β titration","[3]; CY compound (100 μM), 14-3-3β concentration 3.125e-5 M",68.3333 and 69.3333 and 65.3333
same,"Fluorescence polarization signal, 14-3-3β titration","[3]; CY compound (100 μM), 14-3-3β concentration 6.25e-5 M",92.3333 and 88.3333 and 91.3333
same,"Fluorescence polarization signal, 14-3-3β titration","[3]; CY compound (100 μM), 14-3-3β concentration 0.000125 M",110.333 and 109.333
same,"Fluorescence polarization signal, 14-3-3β titration","[3]; CY compound (100 μM), 14-3-3β concentration 0.00025 M",128.333 and 124.333 and 127.333
same,"Fluorescence polarization signal, 14-3-3β titration","[3]; CY compound (100 μM), 14-3-3β concentration 0.0005 M",152.333 and 149.333
same,"Fluorescence polarization signal, 14-3-3β titration","[3]; FC-A + CY compound, 14-3-3β concentration 119.2 pM",2 and 1
same,"Fluorescence polarization signal, 14-3-3β titration","[3]; FC-A + CY compound, 14-3-3β concentration 6.10352e-8 M",5 and 6 and 9
same,"Fluorescence polarization signal, 14-3-3β titration","[3]; FC-A + CY compound, 14-3-3β concentration 1.2207e-7 M",9 and 7
same,"Fluorescence polarization signal, 14-3-3β titration","[3]; FC-A + CY compound, 14-3-3β concentration 2.44141e-7 M",10 and 13 and 15
same,"Fluorescence polarization signal, 14-3-3β titration","[3]; FC-A + CY compound, 14-3-3β concentration 4.88281e-7 M",23 and 24 and 20
same,"Fluorescence polarization signal, 14-3-3β titration","[3]; FC-A + CY compound, 14-3-3β concentration 9.76563e-7 M",41 and 39 and 35
same,"Fluorescence polarization signal, 14-3-3β titration","[3]; FC-A + CY compound, 14-3-3β concentration 1.95313e-6 M",58 and 54 and 52
same,"Fluorescence polarization signal, 14-3-3β titration","[3]; FC-A + CY compound, 14-3-3β concentration 3.90625e-6 M",74 and 73 and 71
same,"Fluorescence polarization signal, 14-3-3β titration","[3]; FC-A + CY compound, 14-3-3β concentration 7.8125e-6 M",91 and 96 and 92
same,"Fluorescence polarization signal, 14-3-3β titration","[3]; FC-A + CY compound, 14-3-3β concentration 1.5625e-5 M",115 and 114
same,"Fluorescence polarization signal, 14-3-3β titration","[3]; FC-A + CY compound, 14-3-3β concentration 3.125e-5 M",128 and 129 and 126
same,"Fluorescence polarization signal, 14-3-3β titration","[3]; FC-A + CY compound, 14-3-3β concentration 6.25e-5 M",141 and 144
same,"Fluorescence polarization signal, 14-3-3β titration","[3]; FC-A + CY compound, 14-3-3β concentration 0.000125 M",157 and 153 and 158
same,"Fluorescence polarization signal, 14-3-3β titration","[3]; FC-A + CY compound, 14-3-3β concentration 0.00025 M",160 and 164
same,"Fluorescence polarization signal, 14-3-3β titration","[3]; FC-A + CY compound, 14-3-3β concentration 0.0005 M",175 and 174
